Like-named read-outs stand apart in the source and are kept apart here.
Tests used:
Format in all cases: cell-based
[1] = test system: HEK293 cells overexpressing APOL1 G2; experiment: APOL1 G2 HEK293 cell rescue assay (reversal of cell death caused by overexpression of APOL1); conditions: geometric mean of at least 2 assay runs, † = single assay run
How it was run: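 EC50 is the half-maximal effective concentration for reversing cell death driven by APOL1 G2 overexpression in HEK293 cells. Reported as geometric mean of at least 2 runs on separate days, each run averaging duplicate wells per plate; some values from a single run.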

[2] = test system: HEK293 clonal cell line overexpressing APOL1 G1; experiment: APOL1 G1 HEK293 cell rescue assay (Example B3); conditions: geometric mean of at least 2 runs, † = single run, ¥ = concentration at 50% rescue estimated (no sigmoidal curve)
How it was run: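 HEK293 clonal line overexpressing APOL1 G1; EC50 is half-maximal reversal of APOL1-induced cell death. Values are the geometric mean of ≥2 runs on separate days, each run the average of duplicate wells. Where no sigmoidal curve could be fitted, the concentration giving 50% rescue was estimated.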

[3] = test system: Trypanosoma brucei Lister 427 VSG221 with APOL1 G0 recombinant protein; experiment: APOL1 G0 trypanosome cell rescue assay (Example B5); conditions: geometric mean of at least 2 assay runs, † = single assay run
Procedure: (§1) APOL1 G0/G1/G2 viability assay for measurement of cytotoxicity reversal by compound in trypanosomes (APOL1 G0/G1/G2 trypanosome cell rescue assay).
(§2) APOL1 protein expression and purification. The mature from of APOL1 proteins, residues 28-398, were expressed from a pET28a vector with an N-terminal His-tag and TEV cleavage site. Proteins were expressed in Escherichia coli BL21-CodonPlus (DE3)-RIPL cells. Liter cultures of terrific broth were grown at 37° C. until an OD600 of ˜0.8 was reached and then induced with isopropyl β-D-1-thiogalactopyranoside (IPTG; final concentration of 500 μM). Afterwards, cultures were grown for 3 hours at 37° C. For protein purification, cell pellets were resuspended in lysis buffer (50 mM Tris, pH 8.5, 5 mM EDTA, 0.5 mM DTT, 0.5 mM PMSF) supplemented with a cocktail of protease inhibitors. Cells were lysed by sonication, centrifuged, and the resulting pellet was collected. The homogenized pellet was resuspended in wash buffer (50 mM Tris, pH 8.5, 0.5 M NaCl, 5 mM EDTA, 0.5 mM DTT, 0.5 mM PMSF, protease inhibitor cocktail) and collected by centrifugation. Inclusion body dissolution was then conducted as previously reported (PNAS 112(9) (2015) 2894-2899; www.pnas.org/cgi/doi/10.1073/pnas.1421953112; herein incorporated by reference in its entirety). The solubilized APOL1 protein was applied to a nickel column (HisTrap, GE Life Sciences) preequilibrated in buffer A (50 mM Tris, pH 8.5, 0.15 M NaCl, 1% zwittergent 3-14, protease inhibitor cocktail). The resin was washed with buffer B (50 mM Tris, pH 8.5, 0.15 M NaCl, 0.1% DDM) and TEV cleavage was conducted on column overnight. Afterwards, the column was washed with buffer B, followed by His-washing buffer (50 mM Tris, pH 8.5, 0.15 M NaCl, 0.1% DDM, 10 mM imidazole). The protein was then removed from the resin using His-elution buffer (50 mM Tris, pH 8.5, 0.15 M NaCl, 0.1% DDM, 250 mM imidazole). The sample was further purified by size exclusion chromatography using a Superdex 200 Increase column (GE Life Sciences) in 50 mM Tris, pH 8.5, 0.15 M NaCl, and 0.1% DDM buffer. All APOL1 proteins (G0, G1, and G2) were generated at Viva Biotech (Shanghai) Ltd.
(§3) Modified HMI-9 media preparation (https://tryps.rockefeller.edu/trypsru2_culture_media_preparation.html; herein incorporated by reference in its entirety). Trypanosomes were cultured in modified HMI-9 media consisting of IMDM (ThermoFisher, 12440053), 10% heat-inactivated FBS (Gibco, 10082-147), 10% Serum Plus (Sigma-Aldrich, 14008C), 1×HMI-9 supplement stock, and 1% hypoxanthine stock. The 10×HMI-9 supplement stock was made by dissolving 280 mg bathocuproine disulfonic acid (Sigma-Aldrich, 146625), 1820 mg cysteine (add after bathocuproine) (Sigma-Aldrich, 30089), 1100 mg pyruvic acid (Sigma-Aldrich, 107360), 100 mg uracil (Sigma-Aldrich, U0750), 100 mg cytosine (Sigma-Aldrich, C3506) and 140 μL 2-mercaptoethanol (Sigma-Aldrich, M3148) in 1000 mL of water. The resulting solution was aliquoted and stored at −20° C. The hypoxanthine stock was made by dissolving 4 g of NaOH into 1000 mL of water. Afterwards, 13.6 g hypoxanthine (Sigma-Aldrich, H9377) was added to this mixture. The resulting solution was aliquoted and stored at −20° C.
(§4) Assay Setup. Trypanosoma brucei Lister 427 VSG221 (ATCC, PRA-382) cells were cultured in modified HMI-9 media. All experiments were performed in 384-well, white, solid bottom, tissue culture treated plates (Greiner, 781080). Assay ready plates were generated with duplicate 11-point compound dilution series that consisted of 2-fold stepwise dilutions (0.4% DMSO final). To each well, was added 20 μL of 2 μg/mL of APOL1 G0, G1, or G2 recombinant protein in modified HMI-9 media using a MultiDrop Combi (final APOL1 protein concentration=[…]). Trypanosomes were counted using a hemacytometer and diluted in modified HMI-9 media to a concentration of 1.25×10^4 cell/mL. […]

[4] = test system: Trypanosoma brucei Lister 427 VSG221 with APOL1 G1 recombinant protein; experiment: APOL1 G1 trypanosome cell rescue assay (Example B5); conditions: geometric mean of at least 2 assay runs, † = single assay run
Procedure: as §1, §2, §3, §4

[5] = test system: Trypanosoma brucei Lister 427 VSG221 with APOL1 G2 recombinant protein; experiment: APOL1 G2 trypanosome cell rescue assay (Example B5); conditions: geometric mean of at least 2 assay runs, † = single assay run
Procedure: as §1, §2, §3, §4

[6] = Homo sapiens, HEK293, HEK293 overexpressing APOL1 G2
[7] = Homo sapiens, HEK293, HEK293 clonal line overexpressing APOL1 G1
[8] = Trypanosoma brucei, 20 h, read-out: APOL1 G0 Trypanosome Rescue EC50, Trypanosoma brucei Lister 427 VSG221 with APOL1 G0 recombinant protein, 20 hours, CellTiter-Glo
[9] = Trypanosoma brucei, 20 h, read-out: APOL1 G1 Trypanosome Rescue EC50, Trypanosoma brucei Lister 427 VSG221 with APOL1 G1 recombinant protein, 20 hours, CellTiter-Glo
[10] = Trypanosoma brucei, 20 h, read-out: APOL1 G2 Trypanosome Rescue EC50, Trypanosoma brucei Lister 427 VSG221 with APOL1 G2 recombinant protein, 20 hours, CellTiter-Glo
[11] = HEK293 clonal line overexpressing APOL1 G1

O=C1CCc2cc(OCCN3CCC4(CC3)C(=O)Nc3ccc(Cl)cc34)cnc2N1[C@H]1C[C@](O)(C2CC2)C1 (single isomer, unassigned) [Compound 398, 5-chloro-1′-[2-({7-oxo-8-[(cis)-3-cyclopropyl-3-hydroxycyclobutyl]-5,6,7,8-tetrahydro-1,8-naphthyridin-3-yl}oxy)ethyl]-1,2-dihydrospiro[indole-3,4′-piperidin]-2-one]
EC50 [1, 6]: 20.1 nM | EC50 [2, 7]: 374 nM | EC50 [3, 8]: 53.6 nM | EC50 [4, 9]: 52.2 nM | EC50 [5, 10]: 18 nM

CC(CO)(c1ncc(OCCN2CCC3(CC2)C(=O)Nc2ccc(Cl)cc23)cc1C(F)(F)F)S(C)(=O)=O (single isomer, unassigned) [Compound 402, 5-chloro-1′-[2-({6-[(2S or 2R)-1-hydroxy-2-methanesulfonylpropan-2-yl]-5-(trifluoromethyl)pyridin-3-yl}oxy)ethyl]-1,2-dihydrospiro[indole-3,4′-piperidin]-2-one]
EC50 ([1]; HEK293 overexpressing APOL1 G2): 23.8 nM | EC50 [2, 11]: 35.7 nM | EC50 [3, 8]: 33.6 nM | EC50 [4, 9]: 42.7 nM | EC50 [5, 10]: 16.5 nM

O=C1CCc2cc(OCCN3CCC4(CC3)C(=O)Nc3ccc(Cl)cc34)cnc2N1[C@H]1C[C@@H](O)C1 [Compound 190, 5-chloro-1′-[2-({7-oxo-8-[(cis)-3-hydroxycyclobutyl]-5,6,7,8-tetrahydro-1,8-naphthyridin-3-yl}oxy)ethyl]-1,2-dihydrospiro[indole-3,4′-piperidin]-2-one]
EC50 [1, 6]: 54.7 nM | EC50 [2, 7]: 105 nM | EC50 [3, 8]: 92.1 nM | EC50 [4, 9]: 104 nM | EC50 [5, 10]: 35.7 nM

O=C(NC1CCS(=O)(=O)C1)c1ccc(OCCN2CCC3(CC2)C(=O)Nc2ccc(Cl)cc23)cc1F (stereo not shown) [Compound 241, 4-(2-{5-chloro-2-oxo-1,2-dihydrospiro[indole-3,4′-piperidin]-1′-yl}ethoxy)-N-(1,1-dioxo-1λ^6-thiolan-3-yl)-2-fluorobenzamide]
EC50 [1, 6]: 72.1 nM | EC50 [2, 7]: 217 nM | EC50 [3, 8]: 177 nM | EC50 [4, 9]: 258 nM | EC50 [5, 10]: 63.3 nM

CS(=O)(=O)C1(c2ccc(OCCN3CCC4(CC3)C(=O)Nc3ccc(Cl)cc34)cc2)CC(O)C1 (stereo not shown) [Compound 268, 5-chloro-1′-{2-[4-(3-hydroxy-1-methanesulfonylcyclobutyl)phenoxy]ethyl}-1,2-dihydrospiro[indole-3,4′-piperidin]-2-one]
EC50 ([1]; HEK293 overexpressing APOL1 G2): 53.4 nM | EC50 [2, 11]: 211 nM | EC50 ([3]; read-out: APOL1 G0 Trypanosome Rescue EC50, Trypanosoma brucei Lister 427 VSG221 with APOL1 G0 recombinant protein, 20 hours, CellTiter-Glo): 108 nM | EC50 ([4]; read-out: APOL1 G1 Trypanosome Rescue EC50, Trypanosoma brucei Lister 427 VSG221 with APOL1 G1 recombinant protein, 20 hours, CellTiter-Glo): 121 nM | EC50 ([5]; read-out: APOL1 G2 Trypanosome Rescue EC50, Trypanosoma brucei Lister 427 VSG221 with APOL1 G2 recombinant protein, 20 hours, CellTiter-Glo): 32.7 nM

O=C(c1ccc(OCCN2CCC3(CC2)C(=O)N(CCO)c2ccc(Cl)cc23)cc1C(F)(F)F)N1CCS(=O)(=O)CC1 [Compound 271, 4-(4-{2-[5-chloro-1-(2-hydroxyethyl)-2-oxo-1,2-dihydrospiro[indole-3,4′-piperidin]-1′-yl]ethoxy}-2-(trifluoromethyl)benzoyl)-1λ^6-thiomorpholine-1,1-dione]
EC50 [1, 6]: 152 nM | EC50 [2, 7]: 340 nM | EC50 [3, 8]: 51 nM | EC50 [4, 9]: 50.7 nM | EC50 [5, 10]: 15.9 nM

CC(=O)c1ncc(OCCN2CCC3(CC2)C(=O)Nc2ccc(Cl)cc23)cc1C(F)(F)F [Compound 294, 1′-(2-{[6-acetyl-5-(trifluoromethyl)pyridin-3-yl]oxy}ethyl)-5-chloro-1,2-dihydrospiro[indole-3,4′-piperidin]-2-one]
EC50 [1, 6]: 23.3 nM | EC50 [2, 7]: 65.6 nM | EC50 [3, 8]: 61.9 nM | EC50 [4, 9]: 89 nM | EC50 [5, 10]: 21.4 nM

CC(=O)c1ncc(OCCN2CCC3(CC2)C(=O)Nc2ccc(C(F)F)cc23)cc1C(F)(F)F [Compound 295, 1′-(2-{[6-acetyl-5-(trifluoromethyl)pyridin-3-yl]oxy}ethyl)-5-(difluoromethyl)-1,2-dihydrospiro[indole-3,4′-piperidin]-2-one]
EC50 [1, 6]: 43.6 nM | EC50 [2, 7]: 112 nM | EC50 [3, 8]: 32.6 nM | EC50 [4, 9]: 40.2 nM | EC50 [5, 10]: 11.1 nM

CC(=O)c1ncc(OCCN2CCC3(CC2)C(=O)Nc2ccc(C#N)cc23)cc1C(F)(F)F [Compound 298, 1′-(2-{[6-acetyl-5-(trifluoromethyl)pyridin-3-yl]oxy}ethyl)-2-oxo-1,2-dihydrospiro[indole-3,4′-piperidine]-5-carbonitrile]
EC50 [1, 6]: 81.8 nM | EC50 [2, 7]: 218 nM | EC50 [3, 8]: 119 nM | EC50 [4, 9]: 156 nM | EC50 [5, 10]: 56.6 nM

O=C1Nc2ccc(Cl)cc2C12CCN(CCOc1cnc(C3(O)CC3)nc1)CC2 [Compound 308, 5-chloro-1′-(2-{[2-(1-hydroxycyclopropyl)pyrimidin-5-yl]oxy}ethyl)-1,2-dihydrospiro[indole-3,4′-piperidin]-2-one]
EC50 [1, 6]: 112 nM | EC50 [2, 7]: 196 nM | EC50 [3, 8]: 335 nM | EC50 [4, 9]: 435 nM | EC50 [5, 10]: 150 nM

C[C@]1(O)C[C@@H](N2C(=O)CCc3cc(OCCN4CCC5(CC4)C(=O)Nc4c(I)cc(Cl)cc45)cnc32)C1 [Compound 329, 5-chloro-7-iodo-1′-[2-({7-oxo-8-[(cis)-3-hydroxy-3-methylcyclobutyl]-5,6,7,8-tetrahydro-1,8-naphthyridin-3-yl}oxy)ethyl]-1,2-dihydrospiro[indole-3,4′-piperidin]-2-one]
EC50 [1, 6]: 56.9 nM | EC50 [2, 7]: 96.1 nM | EC50 [3, 8]: 199 nM | EC50 [4, 9]: 240 nM | EC50 [5, 10]: 67.3 nM

From US12344610B2, “APOL1 inhibitors and methods of use” (Maze Therapeutics, Inc., priority 2022, dated 2025)
